Measurements reported in patent EP0943606A1, “BENZENESULFONAMIDE DERIVATIVES AND DRUGS CONTAINING THE SAME” (HOKURIKU SEIYAKU CO., LTD., priority 1996, dated 1998).

Columns and labels:
[1] = biological target: T1, leukotriene D4 (Cavia porcellus, UniProt Q2NNR5); assay: Leukotriene D4 antagonistic effect (isolated trachea, leukotriene D4 concentration-response curves, Schild); parameters: species or system male Hartley guinea-pigs; details: isolated guinea-pig trachea, contraction by leukotriene D4, test compound treatment 30 minutes, indomethacin 1 × 10^-6M, method of Schild
T1 construct: tracheas were isolated from male Hartley guinea-pigs, and spiral specimens of approximately 2 cm length were prepared; from tissue; host or cells: isolated guinea-pig trachea (spiral strips)
T1 sequence (Q2NNR5 1-340): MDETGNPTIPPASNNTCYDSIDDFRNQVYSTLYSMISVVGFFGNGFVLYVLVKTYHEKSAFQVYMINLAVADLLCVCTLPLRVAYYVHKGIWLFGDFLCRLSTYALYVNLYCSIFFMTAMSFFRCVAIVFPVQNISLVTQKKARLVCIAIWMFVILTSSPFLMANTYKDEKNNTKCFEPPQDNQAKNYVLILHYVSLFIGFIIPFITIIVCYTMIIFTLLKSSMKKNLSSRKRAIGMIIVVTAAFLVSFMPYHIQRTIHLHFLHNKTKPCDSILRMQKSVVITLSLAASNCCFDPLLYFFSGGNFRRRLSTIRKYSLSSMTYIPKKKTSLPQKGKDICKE
Description: According to an ordinary method, tracheas were isolated from male Hartley guinea-pigs, and spiral specimens of approximately 2 cm length were prepared. These specimens were suspended isotonically in organ baths that contained Krebs-Henseleit solution at 37°C under a resting tension of 0.5g. After contractions with acetylcholine (1 × 10^-5M; Ovisot for injection, Daiichi Seiyaku), and the first concentration-response curves were obtained by cumulative applications of 10^-10 to 10^-8M of leukotriene D4 (ULTRA FINE) in the organ baths. After treatments with test compounds at adequate concentrations for 30 minutes, the second concentration-response curves were obtained in the same manner as the first applications. pKB values were calculated using these two concentration-response curves according to the method of Schild [Pharmacological Review, Vol. 9, 242 (1957)]. Indomethacin (1 × 10^-6M, Sigma) was added beforehand to the organ bath to eliminate possible affections by thromboxane A2 and prostaglandin produced by stimulus of leukotriene D4 [Japan J. Pharmacol., Vol. 60, 227 (1992)]. […]

[2] = tested on: human liver microsomes; assay: In vitro metabolism test; assay type: in vitro ADME; details: 0.4mg protein/ml human liver microsomes, 0.02 mM test compound, NADPH-generating system, 37°C for 30 minutes, HPLC
Description: 0.05 mM EDTA-0.1M phosphate buffer (pH 7.4), distilled water, 0.4mg protein/ml human liver microsomes and 0.02 mM test compound were mixed in a test tube under ice-cooling. After the mixture was shaken at 37°C for 2 minutes beforehand, the mixture was added with a ready-mix of NADPH-generating system and then shaken at 37°C for 30 minutes. After the incubation, the reaction was stopped by cooling with ice. The mixture was added with acetonitrile and well mixted, and then centrifuged at 3000 rpm for 10 minutes. The resulting supernatant was subjected to HPLC measurement, and the residual rate of test compound was calculated from the ratio of a peak area of an unchanged compound in the reaction sample in comparison with a non-reaction mixture. Preparations of reagents and reaction mixtures were carried out by referring to Shin Seikagaku Koza, Vol. 5: Biological oxidation and drug metabolism edited by The Japanese Biochemical Society. […]

[3] = tested on: bronchoconstriction induced by U-46619; assay: Inhibitory effect on bronchoconstriction induced by U-46619 (Konzett-Roessler); assay type: in vivo, Male Hartley guinea-pigs; details: Cavia porcellus; 0.3 mg/kg orally, 2 hours before U-46619 (4 µg/kg, cervical vein), anesthetized guinea-pigs, compared to control group; read-out: Inhibition rate (%)
Description: Airway resistance was evaluated according to the method of Konzett-Roessler [Naunyn-Schmiedberg's Arch. Exp. Path. Pharmak., Vol. 195, 71 (1940)]. Male Hartley guinea-pigs (about 400g wt.) were anesthetized with urethane (1.5g/kg, i.p.) and ventilated by an artificial respirator (Model 683; Harvard). At the same time, overflowed air volume above the pressure of about 12cm H2O was measured by using a sensor (Model 7020; Ugo Basile) and the value was used as an index of bronchoconstriction. 0.3 mg/kg (5 ml/kg) of test compounds suspended in 5% gum Arabic was administered orally to the guinea-pigs fasted beforehand for 24 hours. After 2 hours, U-46619 (4 µg/kg; Cayman) was administered through the cervical vein, and then maximal response was measured. Inhibitory rates compared to the control group were calculated based on the response rate normalized by the complete closure as 100%. […]

[4] = biological target: T2, thromboxane A2 / prostaglandin H2 receptor (Cavia porcellus, UniProt A0A286Y4I8); assay: Thromboxane A2 antagonistic effect (isolated trachea, U-46619 concentration-response curves, Schild); parameters: species or system male Hartley guinea-pigs; details: isolated guinea-pig trachea, contraction by U-46619, test compound treatment 5 minutes, indomethacin 3 × 10^-6M, method of Schild
T2 construct: tracheas were isolated from male Hartley guinea-pigs, and spiral specimens of approximately 2 cm length were prepared; from tissue; host or cells: isolated guinea-pig trachea (spiral strips)
T2 sequence (A0A286Y4I8 1-347): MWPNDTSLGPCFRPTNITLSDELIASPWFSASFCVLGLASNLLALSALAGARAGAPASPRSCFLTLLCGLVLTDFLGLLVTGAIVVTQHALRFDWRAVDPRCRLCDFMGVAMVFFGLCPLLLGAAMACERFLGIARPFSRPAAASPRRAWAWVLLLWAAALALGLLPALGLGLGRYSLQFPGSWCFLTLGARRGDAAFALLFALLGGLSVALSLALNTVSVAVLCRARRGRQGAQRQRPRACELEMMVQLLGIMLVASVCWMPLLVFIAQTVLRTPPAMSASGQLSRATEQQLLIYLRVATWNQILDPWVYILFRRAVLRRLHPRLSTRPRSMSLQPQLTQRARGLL
Description: According to an ordinary method, tracheas were isolated from male Hartley guinea-pigs, and spiral specimens of approximately 2 cm length were prepared. These specimens were suspended in organ baths that contained Krebs-Henseleit solution at 37°C under a resting tension of 1.5 g, and the changes in isometric tension were recorded. The first concentration-response curves were obtained by cumulative applications of 1 × 10^-9 to 3 × 10^-7M of U-46619 (Cayman, thromboxane A2 / prostaglandin H2 receptor agonist) in the organ baths. After treatments with test compounds at adequate concentrations for 5 minutes, the second concentration-response curves were obtained in the same manner as the first applications. pKB values were calculated using these two concentration-response curves according to the method of Schild [Pharmacological Review, Vol. 9, 242 (1957)]. Indomethacin (3 × 10^-6M, Sigma) was added beforehand to the organ bath to eliminate possible affections by thromboxane A2 and prostaglandin produced endogenously [Japan J. Pharmacol., Vol. 60, 227 (1992)].

[5] = tested on: bronchoconstriction induced by leukotriene D4; assay: Inhibitory effect on bronchoconstriction induced by leukotriene D4 (Konzett-Roessler); assay type: in vivo, Male Hartley guinea-pigs; details: Cavia porcellus; oral administration 2 hours before leukotriene D4 (1 µg/kg, cervical vein), anesthetized guinea-pigs, indomethacin and propranolol pretreated
Description: Airway resistance was evaluated according to the method of Konzett-Roessler [Naunyn-Schmiedberg's Arch. Exp. Path. Pharmak., Vol. 195, 71 (1940)]. Male Hartley guinea-pigs fasted beforehand for 24 hours were anesthetized with urethane, and then overflowed air volume was measured under artificial ventilation as an index of bronchoconstriction. Various doses of test compounds suspended in 5% gum Arabic were administered orally, and after 2 hours, leukotriene D4 (1 µg/kg; ULTRA FINE) was administered through the cervical vein. Then, values at 2 minutes were measured when maximum responses were obtained. Inhibitory rates compared to the control group were calculated based on the response rate normalized by the overflowed volume at complete closure as 100% bronchoconstriction rate, and the 50% inhibitory doses (ED50 values) were calculated using dose-inhibitory rate curves. Indomethacin (2mg/kg, i.v.) and propranolol (1mg/kg, i.v.) were administered at 10 minutes and 5 minutes before the administration of leukotriene D4, respectively. […]

Structure (SMILES) | Kb [1] [nM] | Residual rate (%) [2] [%] | inhibition in vivo at 0.3 mg/kg [3] [%] | Kb [4] [nM] | ED50 [5] [mg/kg]
O=C(O)CCCc1ccc(C(CCC(F)(F)C(F)(F)C(F)(F)C(F)(F)F)NS(=O)(=O)c2ccc(F)cc2)s1 (stereo not shown) [Example 179, 4-[5-[4,4,5,5,6,6,7,7,7-Nonafluoro-1-(4-fluorophenylsulfonylamino)heptyl]-2-thienyl]butyric Acid] | 100 | 78 | 93 | 7.94 | 0.17
O=C(O)CCCc1ccc(C(CCCC(F)(F)C(F)(F)C(F)(F)F)NS(=O)(=O)c2ccc(F)cc2)cc1 (stereo not shown) [Example 202, 4-[4-[5,5,6,6,7,7,7-Heptafluoro-1-(4-fluorophenylsulfonylamino)heptyl]phenyl]butyric Acid] | 794 | 93 | 85 | 12.6 | 0.97
O=C(O)CCCc1ccc(C(CCCC(F)(F)C(F)(F)C(F)(F)F)NS(=O)(=O)c2ccc(Cl)cc2)s1 (stereo not shown) [Example 177, 4-[5-[1-(4-Chlorophenylsulfonylamino)-5,5,6,6,7,7,7-heptafluoroheptyl]-2-thienyl]butyric Acid] | 398 | 87 | 93 | 6.31 | 0.69
O=C(O)CCCc1ccc(C(CCCC(F)(C(F)(F)F)C(F)(F)F)NS(=O)(=O)c2ccc(F)cc2)s1 (stereo not shown) [Example 183, 4-[5-[5,6,6.6-Tetrafluoro-5-trifluoromethyl-1-(4-fluorophenylsulfonylamino)hexyl]-2-thienyl]butyric Acid] | 398 | 78 | 89 | 2 | 1.1
O=C(O)CCCc1ccc(C(CCCCCC(F)(F)F)NS(=O)(=O)c2ccc(F)cc2)s1 (stereo not shown) [Example 172, 4-[5-[7,7,7-Trifluoro-1-(4-fluorophenylsulfonylamino)heptyl]-2-thienyl]butyric Acid] | 251 | 84 | 73 | 0.398 | 2.4
CC(C)CCCC(NS(=O)(=O)c1ccc(Cl)cc1)c1ccc(CCCC(=O)O)cc1 (stereo not shown) [Reference compound 2, 4-[4-[1-(4-chlorophenylsulfonylamino)-5-methylhexyl]phenyl]butyric acid, reference compound] | 251 | 50 | 81 | 1.26 | 9.2
O=C(O)CCCc1ccc(C(CCCC(F)(F)C(F)(F)C(F)(F)F)NS(=O)(=O)c2ccc(F)cc2)s1 (stereo not shown) [Example 178, 4-[5-[5,5,6,6,7,7,7-Heptafluoro-1-(4-fluorophenylsulfonylamino)heptyl]-2-thienyl]butyric Acid] | 398 | 84 | 89 | 3.16 | 0.67
O=C(O)CCCc1ccc(C(CCCC(F)(F)C(F)(F)F)NS(=O)(=O)c2ccc(F)cc2)s1 (stereo not shown) [Example 163, 4-[5-[5,5,6,6,6-Pentafluoro-1-(4-fluorophenylsulfonylamino)hexyl]-2-thienyl]butyric Acid] | 398 | 87 | 92 | 0.794 | 0.78
O=C(O)CCCc1ccc(C(CCC(F)(F)C(F)(F)C(F)(F)F)NS(=O)(=O)c2ccc(F)cc2)s1 (stereo not shown) [Example 176, 4-[5-[4,4,5,5,6,6,6-Heptafluoro-1-(4-fluorophenylsulfonylamino)hexyl]-2-thienyl]butyric Acid] | 126 | 86 | 78 | 3.16 | 0.14
O=C(O)CCCc1ccc(C(CCC(F)(F)C(F)(F)C(F)(F)F)NS(=O)(=O)c2ccc(F)cc2)cc1 (stereo not shown) [Example 200, 4-[4-[4,4,5,5,6,6,6-Heptafluoro-1-(4-fluorophenylsulfonylamino)hexyl]phenyl]butyric Acid] | 251 | 83 | 82 | 10 | 0.21
O=C(O)CCCc1ccc(C(CCCC(F)(F)C(F)(F)F)NS(=O)(=O)c2ccc(Cl)cc2)cc1 (stereo not shown) [Example 188, 4-[4-[1-(4-Chlorophenylsulfonylamino)-5,5,6,6,6-pentafluorohexyl]phenyl]butyric Acid] | 200 | 74 | 88 | 0.794 | 1.6
